This is an account of results in patent US10067124B2, “Immunoassay method for pro-gastrin-releasing peptide” (Abbott Laboratories, priority 2006, dated 2018).

The assay has as its system serine protease such as thrombin. The experiment in a line: Stabilization of ProGRP in serum by addition of PMSF (Example 2). Format: biochemical. The note with it: PMSF added to serum, room temperature storage. As to the method:
After PMSF (manufactured by Sigma-Aldrich Co.) was added to serum, ProGRP 31-98 antigen amino no acid synthesized by the Fmoc method was added thereto. After the mixture was stored at room temperature, the concentration of ProGRP was assayed using the Architect ProGRP. […] PMSF is a substance that is used to inactivate the activity of an enzyme of a serine protease such as thrombin and the presence of a protease such as thrombin can be considered to be the cause of ProGRP inactivation.

For the molecule `O=S(=O)(F)Cc1ccccc1` [PMSF, Phenylmethanesulfonyl Fluoride], the “effect on decrease in the activity of ProGRP in serum” value is reported as “significantly suppressed”.
